The record followed here is US11859234B2, “Method of monitoring RNase L activity” (THE TRUSTEES OF PRINCETON UNIVERSITY, priority 2016, dated 2024).

For assay [1], the target named is T1, RNase L (Homo sapiens, UniProt Q05823).
T1 sequence (Q05823 1-741): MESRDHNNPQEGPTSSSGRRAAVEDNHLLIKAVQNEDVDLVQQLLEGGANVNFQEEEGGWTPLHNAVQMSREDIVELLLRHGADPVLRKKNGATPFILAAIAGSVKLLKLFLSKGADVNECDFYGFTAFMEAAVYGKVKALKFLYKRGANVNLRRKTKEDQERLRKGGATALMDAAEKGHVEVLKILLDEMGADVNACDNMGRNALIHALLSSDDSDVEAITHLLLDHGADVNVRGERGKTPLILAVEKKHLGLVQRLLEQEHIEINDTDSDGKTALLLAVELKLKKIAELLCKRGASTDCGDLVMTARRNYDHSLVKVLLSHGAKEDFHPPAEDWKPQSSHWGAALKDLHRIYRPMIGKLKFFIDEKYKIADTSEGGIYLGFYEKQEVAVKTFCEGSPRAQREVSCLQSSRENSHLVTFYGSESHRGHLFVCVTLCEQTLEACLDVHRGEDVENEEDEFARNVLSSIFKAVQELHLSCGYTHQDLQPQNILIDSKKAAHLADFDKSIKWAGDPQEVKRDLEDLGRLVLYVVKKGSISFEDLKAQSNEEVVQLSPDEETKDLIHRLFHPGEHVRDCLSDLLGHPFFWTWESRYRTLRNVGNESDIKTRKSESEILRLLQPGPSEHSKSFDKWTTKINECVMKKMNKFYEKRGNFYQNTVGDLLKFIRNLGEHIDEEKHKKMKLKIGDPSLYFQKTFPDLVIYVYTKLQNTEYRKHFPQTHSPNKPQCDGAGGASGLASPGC
As to the kind of experiment: RNA sequencing of RNase L cleavage products in permeabilized T47D cells stimulated with 2-5A. In kind it is cell-based. The arrangement: endogenous in cells. The following applies: 1 μM 2-5A for 3 minutes compared with 1 minute. How it is done:
Initially, approximately 500 ng-1 μg miRvana purified small RNAs is ligated to the ligation adapter (5′-[…]-3′(SEQ ID NO: 1), underlined portion is RNA) using RtcB. It is contemplated that the adaptor has a 3′-desthiobiotin modification. The ligated RNAs are separated from free adapter by resolving on 10% urea PAGE by staining gel and excising all RNA larger than the free adapter. RNA is eluted from gel slices overnight at 4° C. in TE buffer pH 7.5 supplemented with 0.05% Triton X-100. Glycogen is added to RNAs and precipitated with 3 volumes of 100% ethanol and 1/10 volume 3M sodium acetate pH 5.2. The sample is then incubated on dry ice for 30 minutes. […]
Libraries are assessed on an Agilent High Sensitivity DNA chip, and equimolar amounts of libraries pooled and resolved on 6% native PAGE and visualized by gel staining. […] Libraries are now ready for sequencing on the Illumina HiSeq 2000 platform.
The RNA sequencing experiments were also carried out in HeLa cells that overexpress RNase L (RNLoe) and in T47D cells derived from human breast cancer and that have been permeablized and stimulated for 1 minute or 3 minutes with 1 μM 2-5A, which specifically activates RNase L but not other pathways. Results of the primary types of cleavage products detected, e.g., tRNA-His, tRNA-Pro, RNY1, RNY3, RNY4 and RNY5, were similar. […]

For assay [2], the target named is T1, RNase L. The assay is described as follows: qPCR detection of tRNA His-GUG-36 RNase L cleavage product in poly I:C stimulated HeLa cells. On the set-up: endogenous in cells; host or cells: HeLa cells. Particulars: total RNA, RtcB ligation, qPCR with His-GUG-36-2 primer, ΔΔCt method (FIG. 4F). In kind it is cell-based. How it is done: Reaction components useful in the ligation reaction include the following: 2-500 ng purified RNA, 30 μM RtcB ligase, 1 U/μL RNase inhibitor, 10 μM ligation adapter, 100 μM GTP, 20 mM HEPES pH 7.5, 2 mM MnCl2, 110 mM NaCl, 4 mM DTT, 2.2% glycerol (carried into the reaction with RtcB and RNase inhibitor). The standard reaction volume is 10 μL with incubation for 1 hour at 37° C.
After incubation 1 μL of 33 mM EDTA is added followed by a brief room temperature incubation (usually 5-10 minutes) giving a final concentration of EDTA of 3 mM. EDTA is added to chelate Mn^2+ ions that might interfere in downstream steps as well as to stop the ligation reaction.
1 μL of EDTA quenched ligation reaction is mixed with dNTPs and 10 picomoles (pmol) of RT primer in 10 μL volume. The mixture is incubated at 65° C. for 5 minutes then placed on ice (optional). The remaining components are added for a 20 μL reverse transcription reaction: RT buffer, 0.2 U μL RNase inhibitor, Reverse transcriptase (added last), and H2O for 20 μL final volume and incubated according to the RT manufacturer's specifications. […]
For the qPCR, total purified RNA from non-stimulated and poly I:C stimulated HeLa cells was serially diluted, ligated to the adapter with RtcB, reverse transcribed, and detected by qPCR using the His-GUG-36-2 primer and qPCR reverse primer.

2′,5′-oligoadenylate [2-5A]: at RNase L [1], the “RNA cleavage profile of RNase L products” value was “enhanced induction of RNA cleavage of the same products”.
Regarding “polyinosinic-polycytidylic acid [polyI:C]”, the “number of tRNA His-GUG-36-2 cleavage products compared to non-stimulated cells” value at RNase L [2] is “significantly increased”.
